Holding throughout (test): NCI tumour cell line growth inhibition, 48 h
Assay [1] relates to SK-OV-3 ovarian.
For assay [2], the system named is K-562 leukemia.
Assay [3] concerns OVCAR-3 ovarian.
For assay [4], the system named is HCT-15 colon.
Assay [5] deals with UO-31 renal.
For assay [6], the system named is SK-MEL-5 melanoma.
In assay [7] the test system is TK-10 renal.
For assay [8], the system named is MDA-MB-231 breast.
Assay [9] deals with MDA-MB-435.

Several values for one entry are separate records, joined by “and”; a condition that tells them apart may be missing. Identical values can stand only once.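 These data come from cells grown in 96-well plates and exposed to compound for 48 hours at five concentrations. GI50 = concentration required for 50% inhibition of growth. The concentration for full growth arrest is given as TGI.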

In the case of `CCCNC(=O)c1cc2ccccc2cc1C(=O)OC`, the TGI in assay [1], in assay [2], in assay [3], in [4], in assay [5] and in assay [6] was more than 100 µM each time. Besides, in assay [7], the TGI is more than 100 µM.
Turning to `Cc1c(N2C(=O)/C(=C\c3ccc(O)cc3)N=C2c2ccccc2)c(=O)n(-c2ccccc2)n1C`, the GI50 in [1], in [8], in assay [2], in assay [3], in assay [4] and in assay [5] was more than 100 µM throughout. The GI50 in [6], in assay [9] and in [7] was more than 100 µM in each case. Further, the TGI in [1], in [8], in assay [2], in [3], in assay [4] and in [5] was more than 100 µM throughout. Further, the TGI in assay [6], in assay [9] and in assay [7] was more than 100 µM throughout.
For `CC[C@](O)(C(=O)O)c1cc2n(c(=O)c1CO)Cc1cc3ccccc3nc1-2`, the GI50 in assay [1] was 0.0283 µM and 0.0176 µM; in assay [8] it was 0.969 µM; in assay [2] it was 0.0383 µM and 0.137 µM and 0.0357 µM; in assay [3], 0.0775 µM and 0.268 µM and 0.0965 µM; in assay [4], 0.26 µM and 0.0703 µM; in assay [5], 0.0189 µM. In addition, the GI50 is 0.101 µM in [9] and 1.1 µM in [7]. Moreover, the TGI in [8] was 6.84 µM; in assay [2], 12.9 µM and 88 µM; in assay [3], 0.323 µM and 1.18 µM and 0.866 µM; in assay [4] it was 25 µM and 7.92 µM; in assay [5], 0.161 µM and 0.167 µM; in [6], 0.0383 µM and 0.156 µM and 0.0896 µM. Also, the TGI in assay [9] was 0.632 µM and 0.516 µM; in assay [7], 4.38 µM and > 24.8 µM.
In the case of `COc1ccc(/C=C/c2nc(N3CCOCC3)c3cc(F)c(F)cc3n2)cc1OC`, the GI50 was 11 µM in assay [1]; 6.56 µM in assay [8]; 6.08 µM in assay [3]; 3 µM in assay [4]; 3.65 µM in assay [5]; 1.18 µM in assay [6]. For the same compound, the GI50 was 3.18 µM in [9] and 4.84 µM in assay [7]. For the same compound, the TGI is more than 100 µM in [1]; more than 100 µM in assay [8]; more than 100 µM in [3]; more than 100 µM in assay [4]; more than 100 µM in assay [5]; 2.81 µM in [6]. In addition, the TGI in assay [9] and in [7] was more than 100 µM in each case.
For the compound `CCN(CC)c1ccc(/C=C/C(=O)c2cccc(NS(C)(=O)=O)c2)cc1`, the GI50 was 5.27 µM in assay [1]; 9.7 µM in assay [8]; 3.47 µM in assay [2]; 6.37 µM in [3]; 3.44 µM in assay [4]; more than 100 µM in assay [5]. Also, the GI50 in assay [6] is 4.21 µM; in assay [9], 3.29 µM; in assay [7], 7.53 µM. Also, the TGI in assay [1], in assay [8], in [2], in [3], in [4] and in assay [5] was more than 100 µM throughout. For the same compound, the TGI in assay [6], in [9] and in [7] was more than 100 µM throughout.
As for `OCCc1cnco1`, the TGI in [1], in assay [2], in [3], in assay [6] and in [7] was more than 100 µM in each case.
For the compound `COc1cc(C/C=C/c2ccccc2)c(OC)cc1O`, the TGI turned out to be 52.9 µM in assay [8]; 31.6 µM in assay [2]; 51.1 µM in [3]; 37.2 µM in [4]; 31.4 µM in [5]; 62.3 µM in assay [6]. In addition, the TGI in assay [9] was 36.9 µM; in assay [7] it was 38.6 µM.
On to `COc1cc(Nc2ncc3c(n2)-c2ccc(Cl)cc2C(c2c(F)cccc2OC)=NC3)ccc1C(=O)O`, for which the GI50 is 10.6 µM in [1]; 3.07 µM in assay [8]; 5.24 µM in [2]; 7.33 µM in [3]; 4.77 µM in assay [4]; 2.57 µM in [5]. Besides, the GI50 in assay [6] is 12.3 µM; in [7], 4.61 µM. The TGI in [1] is 44 µM; in [8], more than 100 µM; in assay [2], more than 100 µM; in assay [3] it was 34.4 µM; in assay [4] it was more than 100 µM; in assay [5], 21.4 µM. Moreover, the TGI was found to be 29.1 µM in assay [6] and 24.4 µM in [7].
Take `O=C1C2Cc3ccccc3CN2C(=O)N1CN1CCN(CN2C(=O)C3Cc4ccccc4CN3C2=O)CC1` (stereo unspecified): the TGI in assay [1], in assay [2], in assay [3], in [4], in [5] and in [6] was more than 100 µM in each case. Further, the TGI in assay [7] was more than 100 µM.
Regarding `CC1SC2=NC3=C(c4ccccc4C3=O)C(c3ccc(Br)cc3)N2C1=O` (stereo unspecified), the TGI in assay [1], in [2], in assay [3], in assay [4], in assay [5] and in [6] was more than 100 µM in each case. The compound further showed a TGI in assay [7] of more than 100 µM.
Consider `COc1ccc2oc(-c3ccncc3)cc(=O)c2c1`, for which the TGI in assay [2], in assay [3], in assay [4] and in assay [5] was more than 100 µM in each case.
For `Cn1cc2ccccc2c1-c1nc(F)nc(Oc2ccc3c(c2)CC[C@@H]2C3CC[C@]3(C)C(O)CCC23)n1` (stereo partly specified), the TGI in assay [1] is 36.3 µM; in [2], more than 100 µM; in assay [3], 31.8 µM; in assay [4], 33.4 µM; in assay [5] it was 63.6 µM; in assay [6], 30.2 µM. In [7], this compound yielded a TGI of 31.7 µM.
As to `CNC1=C(C)C(=O)C(C)=C(C(C)(C)CC(=O)n2cc(F)c(=O)[nH]c2=O)C1=O`, the TGI in assay [1], in [2], in assay [3], in assay [4], in assay [5] and in assay [6] was more than 100 µM each time. In [7], this compound returned a TGI of more than 100 µM.

The values are drawn from PubChem BioAssay (NCI).
